For one data set, the system named is H1650 lung cancer cells. Briefly: Cell viability assay (MTT, IC50 determination). As to conditions: Homo sapiens, NCI-H1650; H1650 lung cancer cells, MTT, 48 hours after drug treatment; read-out: H1650 cell viability IC50. It is filed as cell-based. How it is done: Cell viability assays were performed according to Denizot, F. and R. Lang, Journal of Immunological Methods, 1986. 89(22): p. 271-277. H1650 lung cancer cells were plated at 150,000 cells per well in a 12 well plate. Twenty-four hours after plating, cells were treated as described with increasing concentrations of drug and control. Forty-eight hours after drug treatment, cells were treated with 100 μL of 3-(4,5-Dimethylthiazol-2-yl)-2,5-diphenyltetrazolium bromide (MTT) and incubated for 2 hours at 37 C. The MTT solution was subsequently replaced with 300 μL of n-propyl alcohol and re-aliquoted to a 96 well plate. Spectrophotometric analysis of each solution was performed using a 96 well plate reader at 600 nm in triplicate.

The nature of data set [1]: In vivo cancer model: body weights and signs of toxicity (Example 2a). Set-up: species or system BALB/c nu/nu mice. Particulars: 5 mg/kg BID oral gavage. The protocol:
(§1) To assess the in vivo effects of the compounds, subcutaneous xenograft of lung cancer cell line H358 was generated. Cells (5×10^6) were injected into the right flank of 6- to 8-week-old male BALB/c nu/nu mice (Charles River, Wilmington, Mass.). Tumor volume was assessed twice a week by caliper measurement. Mice were randomized to treatment groups based on initial tumor volume average of 200 mm^3 per group. Mice were dosed by oral gavage with 5 mg/kg Example 2a BID. Mouse tumors were measured twice a week for the duration of the study. Mouse body weights were recorded weekly and percentage of mice body weights during treatment was calculated as: weight at each time point/initial weight×100.

Data set [2] concerns lung cancer cell line H358. Briefly: In vivo cancer model: subcutaneous H358 xenograft, tumor volume (Example 2a). Set-up: species or system BALB/c nu/nu mice. Particulars: 5 mg/kg BID oral gavage. The protocol:
as §1

A short description of data set [3]: In vivo H358 xenograft model: body weights and signs of toxicity (Example 17b). Details: species or system BALB/c nu/nu mice. Particulars: 5 mg/kg BID oral gavage. How it is done:
(§2) To evaluate the efficacy of Example 17b in vivo, xenograft model was utilized using the H358 cell line. H358 cells (1×10^7) were injected into the right flank of 6- to 8-week-old male BALB/c nu/nu mice. Mice were randomized to treatment groups based on initial tumor volume. Tumor volume was assessed twice a week by caliper measurement, until volumes reached an average of 200 mm^3. Mice were treated by oral gavage with vehicle control or Example 17b (5 mg/kg) BID. The treatment schedules were initiated, and the mouse tumors were measured every other day for the duration of the study. Mice body weights were recorded weekly and percentage of mice body weights during treatment was calculated as: weight at each time point/initial weight×100.

The test system of another data set is H358 cell line. Description: In vivo H358 xenograft model, tumor volume (Example 17b). Set-up: species or system BALB/c nu/nu mice. Particulars: 5 mg/kg BID oral gavage, treatment day 32. The protocol: as §2

Structures are written as SMILES.

In the case of `O=S(=O)(N[C@@H]1COC[C@H](N2c3ccccc3Oc3ccccc32)[C@H]1O)c1ccc(OC(F)(F)F)cc1` [Example 2a, N-((3R,4R,5S)-4-hydroxy-5-(10H-phenoxazin-10-yl)tetrahydro-2H-pyran-3-yl)-4-(trifluoromethoxy)benzenesulfonamide], the IC50 in the data set on H1650 lung cancer cells was determined as 15 µM. In data set [1], the “Signs of toxicity (mucous diarrhea, abdominal stiffness and weight loss)” value was “no adverse signs were observed”; the “Toxicity as judged from animal body weights versus vehicle control” value is on record as “No statistically significant toxicity was observed”. For the same compound, in data set [1] (H358 xenograft mice), the “% T/C (mean body weight)” value worked out at 96.36%, the “% T/C (median body weight)” value is on record as 96.92%, the Mean body weight is listed as 30.21 g and the Median body weight was 29.95 g. Besides, in data set [2] (treatment day 17), the “% T/C (mean tumor volume)” value stood at 28.82%, the “% T/C (median tumor volume)” value is 25.82% and the “Inhibition of tumor growth versus vehicle control” value is given as “statistically significant inhibition of tumor (T) growth versus vehicle control (C)”. Moreover, in data set [2] (treatment day 17, in mm³), the “Mean Tumor Volume (T)” value is recorded as 208.64 and the “Median Tumor Volume (T)” value is recorded as 191.78.
In the case of `O=S(=O)(N[C@H]1CNC[C@@H](N2c3ccccc3Oc3ccccc32)[C@@H]1O)c1ccc(OC(F)(F)F)cc1` [Example 17b, N-((3S,4S,5R)-4-hydroxy-5-(10H-phenoxazin-10-yl)piperidin-3-yl)-4-(trifluoromethoxy)benzenesulfonamide], the concentration for half-maximal inhibition (IC50) in the data set on H1650 lung cancer cells worked out at 10 µM. Further, in data set [3], the “Signs of toxicity (mucous diarrhea, abdominal stiffness and weight loss)” value is listed as “no adverse signs were observed”; the “Toxicity as judged from animal body weights versus vehicle control” value is listed as “No statistically significant toxicity was observed”. Also, in data set [3] (H358 xenograft mice), the “% T/C (mean body weight)” value came to 100.5%, the “% T/C (median body weight)” value amounted to 99.4%, the Mean body weight is 34.41 g and the Median body weight is on record as 34.1 g. Moreover, in the data set with H358 cell line, the “% T/C (mean tumor volume)” value is given as 55%, the “% T/C (median tumor volume)” value worked out at 54%, the “Inhibition of tumor growth versus vehicle control” value is given as “statistically significant inhibition of tumor (T) growth versus vehicle control (C)” and the “Mean Tumor Volume (T)” value was 562 mm^3. Also, the “Median Tumor Volume (T)” value with H358 cell line came out at 520 mm^3.
Turning to `O=S(=O)(N[C@@H]1COC[C@H](N2c3ccccc3Oc3ccccc32)[C@H]1O)c1ccc(Cl)cc1` [Example 61, 4-chloro-N-((3R,4R,5S)-4-hydroxy-5-(10H-phenoxazin-10-yl)tetrahydro-2H-pyran-3-yl)benzenesulfonamide], the IC50 in the data set on H1650 lung cancer cells worked out at 5 µM.

These data come from US10759790B2, “Heterocyclic constrained tricyclic sulfonamides as anti-cancer agents” (ICAHN SCHOOL OF MEDICINE AT MOUNT SINAI, priority 2015, dated 2020).
